This note sets out measurements from patent US20030059511A1, “Sweetener compositions and uses thereof” (AJINOMOTO CO., INC., priority 1999, published 2003).

The structures appear in SMILES notation.

The nature of test [1]: Taste characteristics in an aqueous solution (9 items, similarity index vs aqueous 10% sucrose solution). The class given is in vivo, human. To be noted: PSE 10%, smaller = closer to sucrose, 8 panelists. The procedure: The following experiments were performed using the water obtained by ion exchanging and further distilling the water.
An aqueous solution of each of derivatives 1 to 9 having a sweetness level equivalent to that of PSE 10% was prepared, and compared with aqueous 10% sucrose solution with respect to the following 9 items, i.e., “onset of the taste”, “round taste”, “clear taste”, “lingering taste”, “peculiar taste”, “heavy taste”, “bitter taste”, “astringent taste” and “irritation”. The results were determined as 5 levels (−2 point: very weak, −1 point: a little weak, 0 point: same, +1 point: a little strong, +2 point: very strong) by 8 panelists, and the average points were calculated. The sample solutions of the derivatives equivalent to PSE 10%, were prepared by using the magnification of sweetness intensity measured in Example 1, and the amounts of each derivatives to be used were as follows.
Next, the total of the absolute value of the deviation from sucrose in each of the evaluation items consisting of the onset of the taste, the round taste, the clear taste, the lingering taste, the peculiar taste, the heavy taste, the bitter taste, the astringent taste and the irritation was divided by 9 (total number of items) to calculate the similarity (which is referred to as “similarity index”). The smaller the similarity index becomes, the better the taste balances, and the closer the taste is to the taste characteristics (quality) of sucrose. The total taste becomes preferable. The similarity indexes of each derivatives are shown as follows.
To the aqueous solution of derivative 1 having a sweetness level equivalent to that of PSE 10%, salt was added as final concentratins of 0.1%, 0.2% and 0.5% to compare with the aqueous solution of 10% sucrose for by 2 points comparison method (n=8) and evaluate the characteristics of the taste.
The sensory evaluation was performed by the same way as Example 6.
The following experiments were conducted using the water obtained by ion exchanging and further distilling tap water.
An aqueous solution of each of derivatives 1 to 9 having a sweetness level equivalent to that of PES 10% was prepared, and compared with aqueous 10% sucrose solution with respect to 9 items, namely, “the onset of the taste”, “round taste”, “clear taste”, “lingering taste”, “peculiar taste”, “heavy taste”, “bitter taste”, “astringent taste” and “irritation”. The results were determined as 5 levels (−2 point: very weak, −1 point: a little weak, 0 point: same, +1 point: a little strong, +2 point: very strong) by 8 panelists, and the average points were calculated.
Next, the total of the absolute value of the deviation from sucrose in each of the evaluation items consisting of onset of the taste, round taste, clear taste, lingering taste, peculiar taste, heavy taste, bitter taste, astringent taste and irritation was divided by 9 (total number of items) to calculate the similarity (which is refer to as “similarity index”). The smaller the similarity index becomes, the better the taste balances, and the closer the taste is to the taste characteristics (quality) of sucrose. The total taste becomes preferable. The similarity indexes of each of the derivatives are shown as follows.

Test [2] is described as follows: Measurement of the magnification of sweetness intensity in aqueous solution (sensory evaluation against sucrose solutions). It is filed as in vivo, human. The note with it: for Amount equivalent to PSE 10% / intensity of sweetness, times that of sucrose (magnification of sweetness intensity): aqueous solution; for intensity of sweetness, times that of sucrose (magnification of sweetness intensity): about PSE 10%. The procedure:
An aqueous solution was prepared by diluting derivative 2 to be PSE 10% concentration (15.5 mg/1000 ml=10/6500 g/100 ml), assuming that the intensity of sweetness of derivative 2 was 6500 times that of sucrose. Separately, aqueous sucrose solutions having sucrose concentrations of (a)6.94%, (b)8.33%, (c)10%, (d)12%, and (e)14.4% were prepared. The sensory evaluation was performed by determining which sucrose solution was closest to the solution of derivative 2 in the sweetness intensity. The result of calculation of the average of points of 20 panelists was 2.25 point.
The intensity of sweetness of the solution of derivative 2 was 8.75% according to the following equation: (10.0−8.33)×0.25+8.33=8.75. Accordingly, the intense sweetness of derivative 2 was 5600 (=8.75/0.00155) times that of sucrose. According to the same experiment, the intensity of sweetness of derivative 1 was 22600 times that of sucrose. Furthermore, the magnification of sweetness intensity of other derivatives (3 to 9) can be determined by the same method.
The intensity of sweetness of the solution of derivative 2 was 8.75% according to the following equation: (10.0−8.33)×0.25+8.33=8.75. Accordingly, the intensity of sweetness of derivative 2 was 5600 (=8.75/0.00155) times that of sucrose. According to the same experiment, the intensity of sweetness of derivative 1 was 22600 times that of sucrose. Furthermore, the magnification of sweetness intensity of other derivatives (3 to 9) can be determined by the same method.
An aqueous solution was prepared by diluting derivative 2 to be PSE 10% concentration (15.5 mg/1000 ml=10/6500 g/100 ml), assuming that the intense sweetness of derivative 2 was 6500 times that of sucrose. Separately, aqueous sucrose solutions having sucrose concentrations of (a)6.94%, (b)8.33%, (c)10%, (d)12%, and (e)14.4% were prepared. The sensory evaluation was performed by determining which sucrose solution was closest to the solution of derivative 2 in the sweetness intensity. The result of calculation of the average of points of 20 panelists was 2.25 point.
The sweetness intensity of the solution of derivative 2 was 8.75% according to the following equation: (10.0−8.33)×0.25+8.33=8.75. Therefore, the magnification of sweetness intensity of derivative 2 was 5600 (=8.75/0.00155) times that of sucrose. When the same experiment was performed, the magnification of sweetness intensity of derivative 1 was 22600 times that of sucrose.

`COC(=O)[C@H](Cc1ccccc1)NC(=O)[C@H](CC(=O)O)NCCC(C)(C)c1ccc(O)cc1` [Derivative 6, N-[N-[3-(4-hydroxyphenyl)-3-methylbutyl]-L-α-aspartyl]-L-phenylalanine 1-methyl ester] registered a Similarity index in test [1] of 0.93. Also, the “Amount equivalent to PSE 10%” value in test [2] is listed as 6.7 mg/1000 ml.

In turn, `COC(=O)[C@H](Cc1ccccc1)NC(=O)[C@H](CC(=O)O)NCCCc1ccc(OC)c(O)c1` [Derivative 1, N-[N-[3-(3-hydroxy-4-methoxyphenyl)propyl] -L-α-aspartyl]-L-phenylalanine 1-methyl ester] showed a Similarity index in test [1] of 1.17. In test [2], the “Amount equivalent to PSE 10%” value is given as 4.5 mg/1000 ml and the “intensity of sweetness, times that of sucrose (magnification of sweetness intensity)” value came out at 22600 times.

In test [1], `COC(=O)[C@H](Cc1ccccc1)NC(=O)[C@H](CC(=O)O)NCCCc1ccc(O)c(C)c1` [Derivative 8, N-[N-[3-(3-methyl-4-hydroxyphenyl)propyl]-L-α-aspartyl]-L-phenylalanine 1-methyl ester] displayed a Similarity index of 0.77. The “Amount equivalent to PSE 10%” value in test [2] amounted to 5.5 mg/1000 ml.

With `COC(=O)[C@H](Cc1ccccc1)NC(=O)[C@H](CC(=O)O)NCCCc1ccc(OC)cc1` [Derivative 2, N-[N-[3-(4-methoxyphenyl)propyl]-L-α-aspartyl]-L-phenylalanine 1-methyl ester], the Similarity index in test [1] was 0.63. In test [2], the “Amount equivalent to PSE 10%” value was found to be 17.9 mg/1000 ml and the “intensity of sweetness, times that of sucrose (magnification of sweetness intensity)” value came out at 5600 times. The “intensity of sweetness of the solution” value in test [2] (aqueous solution 15.5 mg/1000 ml, sucrose-equivalent concentration) is recorded as 8.75%. Moreover, the “average of points of 20 panelists” value in test [2] (derivative 2 aqueous solution 15.5 mg/1000 ml, closest of sucrose solutions (a)6.94% to (e)14.4%) worked out at 2.25 point.

As to `COC(=O)[C@H](Cc1ccccc1)NC(=O)[C@H](CC(=O)O)NCCC(C)(C)c1ccc(O)c(C)c1` [Derivative 4, N-[N-[3-(3-methyl-4-hydroxyphenyl)-3-methylbutyl]-L-α-aspartyl]-L-phenylalanine 1-methyl ester], the Similarity index in test [1] amounted to 0.93. In test [2], the “Amount equivalent to PSE 10%” value is on record as 2.3 mg/1000 ml.
